Key:
RXRα [1] = biological target: T1, RXRα (Homo sapiens, UniProt P19793); experiment: receptor transactivation assay, RXRα; format: cell-based; conditions: first entry of cell, read-out: RXR Trans. EC50 (nM) α
T1 construct: the only RXRα plasmid printed
T1 sequence (P19793 227-462 limits assumed): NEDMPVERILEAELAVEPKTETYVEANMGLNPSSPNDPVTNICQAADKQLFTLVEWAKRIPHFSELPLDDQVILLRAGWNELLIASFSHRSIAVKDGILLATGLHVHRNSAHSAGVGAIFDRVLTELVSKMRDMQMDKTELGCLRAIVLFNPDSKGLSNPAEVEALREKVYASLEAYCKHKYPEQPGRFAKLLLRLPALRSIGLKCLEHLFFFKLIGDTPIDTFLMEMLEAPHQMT
From the text: (§1) A holoreceptor transactivation assay and a ligand binding assay which measure the antagonist/agonist like activity of the compounds of the invention, or their ability to bind to the several retinoid receptor subtypes, respectively, are described in published PCT Application No. WO WO93/11755 (particularly on pages 30-33 and 37-41) published on Jun. 24, 1993, the specification of which is also incorporated herein by reference. A detailed experimental procedure for holoreceptor transactivations has been described by Heyman et al. Cell 68, 397-406, (1992); Allegretto et al. J. Biol. Chem. 268, 26625-26633, and Mangelsdorf et al. The Retinoids: Biology, Chemistry and Medicine, pp 319-349, Raven Press Ltd., New York, which are expressly incorporated herein by reference. The results obtained in this assay are expressed in EC50 numbers, as they are also in the chimeric receptor transactivation assay. The results of ligand binding assay are expressed in Kd numbers. (See Cheng et al. Biochemical Pharmacology Vol. 22 pp 3099-3108, expressly incorporated herein by reference.)

RXRβ [2] = biological target: T2, RXRβ (UniProt P28704); experiment: ligand binding assay, RXRβ; set-up: other: RXRβ; last entry of cell; conditions: last entry of cell, read-out: RXR Bind Ki (nM) β
T2 sequence (P28704 1-520): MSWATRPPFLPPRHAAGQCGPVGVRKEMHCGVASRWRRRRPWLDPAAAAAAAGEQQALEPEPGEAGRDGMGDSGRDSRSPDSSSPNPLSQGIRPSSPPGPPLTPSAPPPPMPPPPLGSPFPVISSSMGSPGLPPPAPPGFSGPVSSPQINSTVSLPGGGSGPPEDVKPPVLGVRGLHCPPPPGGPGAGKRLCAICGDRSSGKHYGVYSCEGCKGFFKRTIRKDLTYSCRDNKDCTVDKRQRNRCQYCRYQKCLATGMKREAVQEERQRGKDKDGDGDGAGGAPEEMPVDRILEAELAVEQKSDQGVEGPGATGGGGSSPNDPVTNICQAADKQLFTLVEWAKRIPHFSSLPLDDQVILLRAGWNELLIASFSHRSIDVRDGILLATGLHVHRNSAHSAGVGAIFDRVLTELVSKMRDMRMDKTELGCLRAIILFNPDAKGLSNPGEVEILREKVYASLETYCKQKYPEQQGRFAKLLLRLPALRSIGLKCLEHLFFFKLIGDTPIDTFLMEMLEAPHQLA
From the text: as §1

RXRγ = biological target: T3, RXRγ (UniProt P28705); experiment: ligand binding assay, RXRγ; set-up: other: RXRγ; last entry of cell; conditions: last entry of cell, read-out: RXR Bind Ki (nM) γ
T3 sequence (P28705 1-463): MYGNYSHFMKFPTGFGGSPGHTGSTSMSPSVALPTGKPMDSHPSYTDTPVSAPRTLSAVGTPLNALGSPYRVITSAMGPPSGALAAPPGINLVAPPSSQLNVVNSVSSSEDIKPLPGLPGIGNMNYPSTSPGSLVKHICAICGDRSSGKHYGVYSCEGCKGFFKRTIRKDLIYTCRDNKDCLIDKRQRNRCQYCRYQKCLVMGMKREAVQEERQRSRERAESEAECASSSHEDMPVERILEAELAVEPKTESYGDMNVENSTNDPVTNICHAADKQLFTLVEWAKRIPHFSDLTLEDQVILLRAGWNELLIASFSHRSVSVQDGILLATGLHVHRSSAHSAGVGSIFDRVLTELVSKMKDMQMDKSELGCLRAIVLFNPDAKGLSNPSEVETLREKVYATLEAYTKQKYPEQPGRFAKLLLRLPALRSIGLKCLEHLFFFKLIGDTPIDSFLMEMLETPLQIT
From the text: as §1

RARβ = biological target: T4, RARβ (Homo sapiens, UniProt P10826); experiment: ligand binding assay, RARβ; conditions: second entry of cell, read-out: RAR Bind. Ki (nM) β
T4 sequence (P10826 1-455): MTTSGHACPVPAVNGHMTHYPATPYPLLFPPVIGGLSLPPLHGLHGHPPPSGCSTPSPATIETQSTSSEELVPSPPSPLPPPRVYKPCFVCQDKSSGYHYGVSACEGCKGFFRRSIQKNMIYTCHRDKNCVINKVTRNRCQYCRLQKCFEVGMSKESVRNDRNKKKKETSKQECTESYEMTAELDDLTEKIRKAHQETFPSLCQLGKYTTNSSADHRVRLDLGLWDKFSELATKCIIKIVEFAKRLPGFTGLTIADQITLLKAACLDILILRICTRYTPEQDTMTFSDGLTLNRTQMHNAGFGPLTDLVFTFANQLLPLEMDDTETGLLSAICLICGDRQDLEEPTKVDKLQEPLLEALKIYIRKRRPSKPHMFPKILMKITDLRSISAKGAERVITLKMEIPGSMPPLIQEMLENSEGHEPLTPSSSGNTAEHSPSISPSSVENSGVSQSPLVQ
From the text: as §1

RXRβ [3] = biological target: T2, RXRβ; experiment: receptor transactivation assay, RXRβ; format: cell-based; set-up: RXR Trans; other: RXRβ; first entry of cell; conditions: for EC50: first entry of cell, read-out: RXR Trans. EC50 (nM) β; for RXR Trans. β, number in parentheses after EC50: parenthesised number, not defined in the patent
From the text: as §1

RXRα [4] = biological target: T5, RXRα (Homo sapiens, UniProt P19793); experiment: ligand binding assay, RXRα; conditions: last entry of cell, read-out: RXR Bind Ki (nM) α
T5 sequence (P19793 1-462): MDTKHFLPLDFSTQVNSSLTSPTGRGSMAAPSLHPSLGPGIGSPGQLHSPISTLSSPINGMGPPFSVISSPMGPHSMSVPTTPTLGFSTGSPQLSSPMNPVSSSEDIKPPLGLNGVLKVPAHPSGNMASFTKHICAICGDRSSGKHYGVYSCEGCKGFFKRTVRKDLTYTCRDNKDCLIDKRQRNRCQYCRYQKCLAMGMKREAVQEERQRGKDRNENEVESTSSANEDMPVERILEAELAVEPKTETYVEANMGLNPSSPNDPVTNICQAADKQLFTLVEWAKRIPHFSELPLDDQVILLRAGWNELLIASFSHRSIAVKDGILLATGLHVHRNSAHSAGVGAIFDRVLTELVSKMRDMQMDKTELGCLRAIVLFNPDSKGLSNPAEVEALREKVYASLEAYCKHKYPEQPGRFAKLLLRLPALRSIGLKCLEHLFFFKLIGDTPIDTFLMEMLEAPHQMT
From the text: as §1

Compound | EC50 (RXRα [1]) | Ki (RXRβ [2]) | Ki (RXRγ) | Ki (RARβ) | EC50 (RXRβ [3]) | Ki (RXRα [4]) | RXR Trans. β, number in parentheses after EC50 (RXRβ [3])
CCCCC(O)CCc1cc([C@@]2(C)C[C@H]2/C=C/C(C)=C/C(=O)O)cc2c1OCC2(C)C (stereo partly drawn) [Compound 38, (E)-3-((E)-2-{(1S,2S)-2-[7-(3-Hydroxy-heptyl)-3,3-dimethyl-2,3-dihydro-benzofuran-5-yl]-2-methyl-cyclopropyl}-vinyl)-but-2-enoic acid] | 1950 nM | 557 nM | 283 nM | > 10000 nM | 1360 nM | 306 nM | 
CC(/C=C/[C@@H]1C[C@]1(C)c1cc(Br)c2c(c1)C(C)(C)CO2)=C\C(=O)O [Compound 20, (6S,7S)-7-[5-(7-Bromo-3,3-dimethyl-2,3-dihydro-benzofuranyl)]-6,7-methano-3-methyl-octa-2E,4E-dienoic Acid] | 2.4 nM | 21.5 nM | 40 nM | > 10000 nM | 12 nM | 7.1 nM | 108
CCc1cc([C@@]2(C)C[C@H]2/C=C/C(C)=C/C(=O)O)cc2c1OCC2(C)C [Compound 6] | 0.3 nM | 1.8 nM | 3.2 nM | > 30000 nM | 2.8 nM | 0.72 nM | 75
CC(/C=C/[C@@H]1C[C@]1(C)c1cc(-c2ccccc2)c2c(c1)C(C)(C)CO2)=C\C(=O)O [Compound 22, 6S,7S)-7-[5-(3,3-Dimethyl-7-phenyl-2,3-dihydro-benzofuranyl)1-6,7-methano-3-methyl-octa-2E,4E-dienoic acid] | 8.3 nM | 9.6 nM | 6.2 nM | > 10000 nM | 28.4 nM | 2.3 nM | 75
CC(/C=C/[C@@H]1C[C@]1(C)c1cc(Cc2ccccc2)c2c(c1)C(C)(C)CO2)=C\C(=O)O [Compound 14, (6S,7S)-7-[5-(7-Benzyl-3,3-dimethyl-2,3-dihydro-benzofuranyl)]-6,7-methano-3-methyl-octa-2E,4E-dienoic Acid] | 0.086 nM | 1.1 nM | 9.2 nM | 4770 nM | 0.515 nM | 0.8 nM | 114
CC(/C=C/[C@@H]1C[C@]1(C)c1cc(C(C)C)c2c(c1)C(C)(C)CO2)=C\C(=O)O [Compound 8, (6S,7S)-7-[5-(3,3-Dimethyl-7-iso-propyl-2,3-dihydro-benzofuranyl)]-6,7-methano-3-methyl-octa-2E,4E-dienoic Acid] | 0.159 nM | 10.6 nM | 8.6 nM | 41000 nM | 0.66 nM | 1.7 nM | 110
CC(/C=C/[C@@H]1C[C@]1(C)c1cc(-c2ccccc2C)c2c(c1)C(C)(C)CO2)=C\C(=O)O [Compound 26, 5-[(1S,2S)-2-(3,3-Dimethyl-7-o-tolyl-2,3-dihydro-benzofuran-5-yl)-2-methyl-cyclopropyl]-3-methyl-penta-2E,4E-dienoic acid] | 0.2 nM | 1.9 nM | 6.1 nM | > 10000 nM | 0.65 nM | 1.2 nM | 99
CC(/C=C/[C@@H]1C[C@]1(C)c1cc(C(C)(C)C)c2c(c1)C(C)(C)CO2)=C\C(=O)O [Compound 10, (6S,7S)-7-[5-(3,3-Dimethyl-7-t-butyl-2,3-dihydro-benzofuranyl)]-6,7-methano-3-methyl-octa-2E,4E-dienoic acid] | 0.55 nM | 7.1 nM | 1.3 nM | 19000 nM | 12 nM | 0.8 nM | 90

From patent US6720423B2, “Dihydrobenzofuran and dihydrobenzothiophene 2,4-pentadienoic acid derivatives having selective activity for retinoid X (RXR) receptors” (Allergan, Inc., priority 2002, dated 2004)
